Earlier results as cited in EP4473960A1, “VACCINE FORMULATION COMPRISING A SURFACTANT THAT DOES NOT COMPRISE AN ESTER BOND” (Vaxxinova Nederland BV, priority 2023, dated 2024).
Read-outs that look alike come from different tables or passages of the source.

[1] = Table 2, surfactants without ester bond
[2] = Table 3A, HLB values of surfactants discussed

Row | Substance | HLB [1] | HLB [2] | Hydrophilic-Lipophilic Balance (HLB)
1 | Polyoxyethylen (6) cetylstearylether [Cremophor A6] | 10-12 | 10 - 12 | –
2 | Polyoxyethylen (2) oleylether [Brij 92] | 4,9 | 4,9 | –
3 | Sorbitan stearate [Span 60] | – | 4,7 | –
4 | Polyoxyethylen (10) tridecylether | 13.7 | – | –
5 | Sorbitan tristearate [Span 65] | – | 2,2 | –
6 | Polyoxyethylen (25) cetylstearylether [Cremophor A25] | 15-17 | 15-17 | –
7 | Polyoxyethylen (2) cetylether [Brij 52] | 5,3 | 5,3 | –
8 | Polyoxyethylen (4) laurylether [Brij 30] | 9,7 | 9,7 | –
9 | Polyoxyethylen (20) cetylstearylether [Cremophor A20] | 14-16 | – | –
10 | Polyoxyethylen (10) monodecylether | 14.6 | – | –
11 | Sorbitan palmitate [Span 40] | – | 6.7 | –
12 | Polyoxyethylen (2) stearylether [Brij 72] | 4,9 | 4,9 | –
13 | Polyoxyethylen (9) laurylether [Thesit] | 11.2 | – | –
14 | Sorbitan monooleate [Span 80] | – | 4,3 | 4,3
